Laboratory results published in US20240270762A1, “PENICILLIN-BINDING PROTEIN INHIBITORS” (priority 2021, published 2024).
In brackets after ≈: the same amount, converted by molar mass.

Key:
N. gonorrhoeae WHO Z = test: Liquid broth MIC in Fastidious broth; conditions: Neisseria gonorrhoeae, read-out: Minimum Inhibitory Concentration (MIC), N. gonorrhoeae WHO Z
N. gonorrhoeae MS11 = test: Liquid broth MIC in Fastidious broth; conditions: Neisseria gonorrhoeae, MS11, read-out: Minimum Inhibitory Concentration (MIC), N. gonorrhoeae MS11
P. aeruginosa ATCC 27853 = test: microbe, parasite or virus in culture; type: cell-based; conditions: Pseudomonas aeruginosa, ATCC27853, read-out: MIC P. aeruginosa ATCC 27853
[1] = target: T1, PBP3 from Pseudomonas aeruginosa (PAO1) (Pseudomonas aeruginosa, UniProt G3XD46); test: Bocillin-FL fluorescence polarization competition binding, P. aeruginosa PBP3; conditions: Binding affinity to P. aeruginosa PBP3; fluorescence polarization competition binding assay using Bocillin-FL; read-out: P. aeruginosa PBP3 Potency
T1 construct: made in house
T1 sequence (G3XD46 whole entry): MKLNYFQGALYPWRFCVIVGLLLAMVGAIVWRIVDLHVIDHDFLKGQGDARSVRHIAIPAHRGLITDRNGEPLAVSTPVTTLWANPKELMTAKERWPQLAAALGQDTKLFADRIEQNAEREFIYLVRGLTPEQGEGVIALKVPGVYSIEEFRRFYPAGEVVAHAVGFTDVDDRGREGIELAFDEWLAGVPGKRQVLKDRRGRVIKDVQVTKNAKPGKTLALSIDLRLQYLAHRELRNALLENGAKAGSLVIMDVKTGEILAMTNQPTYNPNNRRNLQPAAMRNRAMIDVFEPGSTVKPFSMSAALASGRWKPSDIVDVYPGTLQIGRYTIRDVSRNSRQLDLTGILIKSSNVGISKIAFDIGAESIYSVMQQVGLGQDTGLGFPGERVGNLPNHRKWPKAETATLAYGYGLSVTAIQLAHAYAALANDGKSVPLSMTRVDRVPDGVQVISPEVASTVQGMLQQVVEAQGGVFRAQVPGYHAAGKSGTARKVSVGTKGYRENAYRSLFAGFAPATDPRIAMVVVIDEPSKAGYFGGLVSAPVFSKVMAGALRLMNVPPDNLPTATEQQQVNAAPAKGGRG
Outline: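 Purified PBP was preincubated with inhibitor (E. coli PBP3 1.5 μM, 30 min; P. aeruginosa PBP3 0.75 μM, A. baumannii PBP3 0.2 μM and PBP1a 1 μM, 15 min), then Bocillin-FL (0.1 μM; 0.05 μM for PBP1a) added and FP read up to 60 min. EC50 = 50% loss of bound probe.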

N. gonorrhoeae WHO Q = test: Liquid broth MIC in Fastidious broth; conditions: Neisseria gonorrhoeae, read-out: Minimum Inhibitory Concentration (MIC), N. gonorrhoeae WHO Q
Protocol: Liquid broth-based assays were used for antibacterial testing of PBP inhibitors in Neisseria gonorrhoeae. Briefly, cryo-preserved bacterial cultures of clinical strains were streaked for isolation on Chocolate Agar (72 g/L (2×) GC Agar Base (BD #228950) and 2% (2×) Hemoglobin was autoclaved at 121° C. for 20 minutes to sterilize. Once cooled to ˜50° C. the 2×GC Agar Base and 2× Hemoglobin solutions are combined and 1% IsoVitaleX Enrichment (BD #211876) was added to the solution). Strains were incubated at 36° C. and 5% CO2 to allow growth of colonies, 24 hours before inoculum preparation. 2-fold serial dilutions of test compounds were conducted in a 96 well plate with a final volume of 75 μL per well at 2-fold the final desired concentration in Fastidious broth (Remel #R07664). For preparation of assay inoculum, a direct suspension was prepared by aseptically swabbing 10-15 colonies from agar plates into culture tubes containing 2 mL of fresh sterile saline. After the dilution plates were set up, direct suspensions were then diluted in a cuvette containing sterile saline and the optical density was measured at 600 nm. Inocula were diluted such that 75 μL of this culture in Fastidious broth results in a starting bacterial concentration of 5×10^5 CFU/mL when added to the dilution plates. The plates were incubated for ˜24 hours at 36° C. and 5% CO2.

E. coli ATCC 25922 = test: microbe, parasite or virus in culture; type: cell-based; conditions: Escherichia coli, ATCC25922, read-out: MIC E. coli 25922
K. pneumoniae UMM = test: microbe, parasite or virus in culture; type: cell-based; conditions: Klebsiella pneumoniae, read-out: MIC K. pneumoniae UMM

Compound `O=C(O)c1cccc2c1OB(O)[C@@H](NC(=O)C(NC(=O)C(F)(F)F)c1ccc(P(=O)(O)O)cc1)C2` (stereo partly drawn) [Example 172, (3R)-2-hydroxy-3-(2-(4-phosphonophenyl)-2-(2,2,2-trifluoroacetamido)acetamido)-3,4-dihydro-2H-benzo[e][1,2]oxaborinine-8-carboxylic acid] has an MIC (N. gonorrhoeae WHO Z) of 16 to 32 µg/mL (≈ 31 to 62 µM), an MIC (N. gonorrhoeae MS11) of 16 to 32 µg/mL (≈ 31 to 62 µM) and an MIC (P. aeruginosa ATCC 27853) greater than 128 µg/mL. For the same compound, the IC50 [1] was 50 to 250 µM, the MIC (N. gonorrhoeae WHO Q) was 16 to 32 µg/mL (≈ 31 to 62 µM) and the MIC (E. coli ATCC 25922) was greater than 128 µg/mL. For the same compound, the MIC (K. pneumoniae UMM) was greater than 128 µg/mL.
Compound `O=C(O)c1cccc2c1OB(O)[C@@H](NC(=O)[C@H](NC(=O)[C@@H]1CCCN1)c1ccc(P(=O)(O)O)cc1)C2` [Example 173, (R)-2-hydroxy-3-((R)-2-(4-phosphonophenyl)-2-((S)-pyrrolidine-2-carboxamido)acetamido)-3,4-dihydro-2H-benzo[e][1,2]oxaborinine-8-carboxylic acid] has an MIC (N. gonorrhoeae WHO Z) of 16 to 32 µg/mL (≈ 30.9 to 61.9 µM), an MIC (N. gonorrhoeae MS11) of 16 to 32 µg/mL (≈ 30.9 to 61.9 µM) and an MIC (P. aeruginosa ATCC 27853) greater than 128 µg/mL. The IC50 [1] was 10 to 50 µM, the MIC (N. gonorrhoeae WHO Q) was 16 to 32 µg/mL (≈ 30.9 to 61.9 µM) and the MIC (E. coli ATCC 25922) was greater than 128 µg/mL. The MIC (K. pneumoniae UMM) was 32 to 64 µg/mL (≈ 61.9 to 124 µM).
With `O=C(O)c1cccc2c1OB(O)[C@@H](NC(=O)C(NC(=O)c1ccc[nH]c1=O)c1ccc(P(=O)(O)O)cc1)C2` (stereo partly drawn) [Example 174, (3R)-2-hydroxy-3-(2-(2-oxo-1,2-dihydropyridine-3-carboxamido)-2-(4-phosphonophenyl)acetamido)-3,4-dihydro-2H-benzo[e][1,2]oxaborinine-8-carboxylic acid] the MIC (N. gonorrhoeae WHO Z) was 16 to 32 µg/mL (≈ 29.6 to 59.1 µM), the MIC (N. gonorrhoeae MS11) was 4 to 8 µg/mL (≈ 7.39 to 14.8 µM) and the MIC (P. aeruginosa ATCC 27853) was greater than 128 µg/mL. For the same compound, the IC50 [1] was 10 to 50 µM, the MIC (N. gonorrhoeae WHO Q) was 16 to 32 µg/mL (≈ 29.6 to 59.1 µM) and the MIC (E. coli ATCC 25922) was greater than 128 µg/mL. The MIC (K. pneumoniae UMM) was greater than 128 µg/mL.
`O=C(O)c1cccc2c1OB(O)[C@@H](NC(=O)[C@H](NC(=O)c1c[nH]ccc1=O)c1ccc(P(=O)(O)O)cc1)C2` [Example 175, (R)-2-hydroxy-3-((R)-2-(4-oxo-1,4-dihydropyridine-3-carboxamido)-2-(4-phosphonophenyl)acetamido)-3,4-dihydro-2H-benzo[e][1,2]oxaborinine-8-carboxylic acid] gave an MIC (N. gonorrhoeae WHO Z) of 4 to 8 µg/mL (≈ 7.39 to 14.8 µM), an MIC (N. gonorrhoeae MS11) of 1 to 2 µg/mL (≈ 1.85 to 3.7 µM) and an MIC (P. aeruginosa ATCC 27853) of 32 to 64 µg/mL (≈ 59.1 to 118 µM). For the same compound, the IC50 [1] was less than 10 µM, the MIC (N. gonorrhoeae WHO Q) was 4 to 8 µg/mL (≈ 7.39 to 14.8 µM) and the MIC (E. coli ATCC 25922) was 32 to 64 µg/mL (≈ 59.1 to 118 µM). It also gave an MIC (K. pneumoniae UMM) of 32 to 64 µg/mL (≈ 59.1 to 118 µM).
In the case of `O=C(O)c1cccc2c1OB(O)[C@@H](NC(=O)C(NC(=O)c1cnc[nH]c1=O)c1ccc(P(=O)(O)O)cc1)C2` (stereo partly drawn) [Example 176, (3R)-2-hydroxy-3-(2-(6-oxo-1,6-dihydropyrimidine-5-carboxamido)-2-(4-phosphonophenyl)acetamido)-3,4-dihydro-2H-benzo[e][1,2]oxaborinine-8-carboxylic acid], the MIC (N. gonorrhoeae WHO Z) is reported as 16 to 32 µg/mL (≈ 29.5 to 59 µM), the MIC (N. gonorrhoeae MS11) is reported as 4 to 8 µg/mL (≈ 7.38 to 14.8 µM) and the MIC (P. aeruginosa ATCC 27853) is reported as 32 to 64 µg/mL (≈ 59 to 118 µM). The IC50 [1] was less than 10 µM, the MIC (N. gonorrhoeae WHO Q) was 16 to 32 µg/mL (≈ 29.5 to 59 µM) and the MIC (E. coli ATCC 25922) was greater than 128 µg/mL. The MIC (K. pneumoniae UMM) was greater than 128 µg/mL.
`N#Cc1ccnc(C(=O)NC(C(=O)N[C@H]2Cc3cccc(C(=O)O)c3OB2O)c2ccc(P(=O)(O)O)cc2)c1` (stereo partly drawn) [Example 179, (3R)-3-(2-(4-cyanopicolinamido)-2-(4-phosphonophenyl)acetamido)-2-hydroxy-3,4-dihydro-2H-benzo[e][1,2]oxaborinine-8-carboxylic acid] was tested, and the MIC (N. gonorrhoeae WHO Z) was 16 to 32 µg/mL (≈ 29.1 to 58.2 µM), the MIC (N. gonorrhoeae MS11) was 16 to 32 µg/mL (≈ 29.1 to 58.2 µM) and the MIC (P. aeruginosa ATCC 27853) was greater than 128 µg/mL. It also gave an IC50 [1] of less than 10 µM, an MIC (N. gonorrhoeae WHO Q) of 16 to 32 µg/mL (≈ 29.1 to 58.2 µM) and an MIC (E. coli ATCC 25922) greater than 128 µg/mL. The MIC (K. pneumoniae UMM) was greater than 128 µg/mL.
With `N#Cc1cccc(C(=O)N[C@@H](C(=O)N[C@H]2Cc3cccc(C(=O)O)c3OB2O)c2ccc(P(=O)(O)O)cc2)n1` [Example 180, (R)-3-((R)-2-(6-cyanopicolinamido)-2-(4-phosphonophenyl)acetamido)-2-hydroxy-3,4-dihydro-2H-benzo[e][1,2]oxaborinine-8-carboxylic acid] the MIC (N. gonorrhoeae WHO Z) was less than 1 µg/mL, the MIC (N. gonorrhoeae MS11) was 1 to 2 µg/mL (≈ 1.82 to 3.63 µM) and the MIC (P. aeruginosa ATCC 27853) was greater than 128 µg/mL. For the same compound, the IC50 [1] was less than 10 µM, the MIC (N. gonorrhoeae WHO Q) was 1 to 2 µg/mL (≈ 1.82 to 3.63 µM) and the MIC (E. coli ATCC 25922) was greater than 128 µg/mL. It also gave an MIC (K. pneumoniae UMM) greater than 128 µg/mL.
Compound `O=C(O)c1cccc2c1OB(O)[C@@H](NC(=O)C(NC(=O)c1ncccc1Cl)c1ccc(P(=O)(O)O)cc1)C2` (stereo partly drawn) [Example 183, (3R)-3-(2-(3-chloropicolinamido)-2-(4-phosphonophenyl)acetamido)-2-hydroxy-3,4-dihydro-2H-benzo[e][1,2]oxaborinine-8-carboxylic acid] has an MIC (N. gonorrhoeae WHO Z) of 16 to 32 µg/mL (≈ 28.6 to 57.2 µM), an MIC (N. gonorrhoeae MS11) of 4 to 8 µg/mL (≈ 7.15 to 14.3 µM) and an MIC (P. aeruginosa ATCC 27853) greater than 128 µg/mL. The IC50 [1] was less than 10 µM, the MIC (N. gonorrhoeae WHO Q) was 16 to 32 µg/mL (≈ 28.6 to 57.2 µM) and the MIC (E. coli ATCC 25922) was greater than 128 µg/mL. The MIC (K. pneumoniae UMM) was greater than 128 µg/mL.
Compound `O=C(NC(C(=O)N[C@H]1Cc2cccc(C(=O)O)c2OB1O)c1ccc(P(=O)(O)O)cc1)c1ccc(Cl)cn1` (stereo partly drawn) [Example 184, (3R)-3-(2-(5-chloropicolinamido)-2-(4-phosphonophenyl)acetamido)-2-hydroxy-3,4-dihydro-2H-benzo[e][1,2]oxaborinine-8-carboxylic acid] has an MIC (N. gonorrhoeae WHO Z) of less than 1 µg/mL, an MIC (N. gonorrhoeae MS11) of less than 1 µg/mL and an MIC (P. aeruginosa ATCC 27853) greater than 128 µg/mL. For the same compound, the IC50 [1] was less than 10 µM, the MIC (N. gonorrhoeae WHO Q) was 1 to 2 µg/mL (≈ 1.79 to 3.57 µM) and the MIC (E. coli ATCC 25922) was greater than 128 µg/mL. For the same compound, the MIC (K. pneumoniae UMM) was greater than 128 µg/mL.
`NC(=O)c1ccc(C(=O)NC(C(=O)N[C@H]2Cc3cccc(C(=O)O)c3OB2O)c2ccc(P(=O)(O)O)cc2)nc1` (stereo partly drawn) [Example 188, (3R)-3-(2-(5-carbamoylpicolinamido)-2-(4-phosphonophenyl)acetamido)-2-hydroxy-3,4-dihydro-2H-benzo[e][1,2]oxaborinine-8-carboxylic acid] gave an MIC (N. gonorrhoeae WHO Z) of 1 to 2 µg/mL (≈ 1.76 to 3.52 µM), an MIC (N. gonorrhoeae MS11) of less than 1 µg/mL and an MIC (P. aeruginosa ATCC 27853) greater than 128 µg/mL. The IC50 [1] was less than 10 µM, the MIC (N. gonorrhoeae WHO Q) was 1 to 2 µg/mL (≈ 1.76 to 3.52 µM) and the MIC (E. coli ATCC 25922) was greater than 128 µg/mL. For the same compound, the MIC (K. pneumoniae UMM) was greater than 128 µg/mL.
Work on `CCN1CCN(C(=O)NC(C(=O)N[C@H]2Cc3cccc(C(=O)O)c3OB2O)c2ccc(S(=O)(=O)O)cc2)C(=O)C1=O` (stereo partly drawn) [Example 189, (3R)-3-(2-(4-ethyl-2,3-dioxopiperazine-1-carboxamido)-2-(4-sulfophenyl)acetamido)-2-hydroxy-3,4-dihydro-2H-benzo[e][1,2]oxaborinine-8-carboxylic acid] yielded an MIC (N. gonorrhoeae WHO Z) of 1 to 2 µg/mL (≈ 1.7 to 3.4 µM), an MIC (N. gonorrhoeae MS11) of less than 1 µg/mL and an MIC (P. aeruginosa ATCC 27853) greater than 128 µg/mL. It also gave an IC50 [1] of less than 10 µM, an MIC (N. gonorrhoeae WHO Q) of 1 to 2 µg/mL (≈ 1.7 to 3.4 µM) and an MIC (E. coli ATCC 25922) greater than 128 µg/mL. The MIC (K. pneumoniae UMM) was 32 to 64 µg/mL (≈ 54.4 to 109 µM).
